# Measured values taken from US20250319053A1, “INHIBITORS OF THE PEPTIDYL-PROLYL CIS/TRANS ISOMERASE (PIN1), COMBINATIONS AND USES THEREOF” (DANA-FARBER CANCER INSTITUTE, INC., priority 2021, published 2025).
# What was measured:
# [1] = system: WT B6 mice (non-tumor-bearing mice); test: Blood test (CBC, liver, renal) of Pin1i-2 treated non-tumor-bearing B6 mice; format: in vivo, mouse; settings: for CBC BA: Normal Range 0-2; for CBC EO: Normal Range 0-3.9; for CBC MO: Normal Range 0-7.5; for CBC WBC: Normal Range 1.8-10.7; for Liver Alb: Normal Range 1.95-4.74; for CBC RBC: Normal Range 6.36-9.42; for CBC NE: Normal Range 6.6-38.9; for CBC Hb: Normal Range 11-15.1; for Renal BUN: Normal Range 17-57.5; for Liver ALT: Normal Range 30-206; for CBC LY: Normal Range 55.8-91.6; for CBC PLT: Normal Range 592-2972; for Renal Cre: Normal Range <0.15
# Description: Table 1 is a table of blood test results together with body weight of Pin1i−2 treated non-tumor-bearing B6 mice. See also FIG. 1A-FIG. 1G, FIG. 8A-FIG. 8O, and FIG. 9A-9L. WT B6 mice (non-tumor-bearing mice) were treated with vehicle or Pin1i−2 (20, 40, or 60 mg/kg, i.p., daily) for 5 weeks, followed by examining mice body weight or the RBC, Hb, Plate, and kidney and liver function using blood tests at 3 weeks and 5 weeks (n=5).
# Pin1 = Pin1 (Homo sapiens, UniProt Q13526); test: Immunoblotting for Pin1 and substrate oncoproteins in PDAC cells; format: cell-based; parameters: endogenous in cells; host or cells: primary human patient-derived PDAC cells (PDAC1, PDAC2); settings: 72 hrs
# Description: Cultured cells were lysed in RIPA buffer (50 mM Tris-HCl, pH 7.2, 150 mM NaCl, 1% NP40, 0.1% sodium dodecyl sulfate (SDS), 0.25% Na-deoxycholate) with freshly added phosphatase inhibitors containing 5 mM NaF and 0.2 mM sodium orthovanadate (NA3VO4), and proteinase inhibitors containing 2 μg/mL Aprotinin, 2 μg/mL Leupeptin, 2 μg/mL Pepstatin A, 1 mM DTT (dithiothreitol), 0.5 mM 4-(2-aminoethyl)-benzenesulfonyl fluoride (AEBSF), and 20 mM Chymotrypsin, and then mixed with the SDS sample buffer and loaded onto a gel after boiling for 10 minutes at 95° C. The proteins were resolved by polyacrylamide gel electrophoresis and transferred to PVDF membrane. The transferred membrane was washed three times with Tris-buffered saline containing 0.1% Tween 20 (TBST). After blocking with TBST containing 5% milk or 3% bovine serum albumin (BSA) for 1 h room temperature, the membrane was incubated with the appropriate primary antibody (diluted 1:500-1:10000) in 5% milk or 3% BSA-containing TBST at 4° C. overnight. After incubation with the primary antibody, the membrane was washed three times with TBST for a total of 30 min followed by incubation with horseradish peroxidase conjugated goat anti-rabbit or anti-mouse IgG (diluted 1:5000) for 1 h at room temperature. After three extensive washes with TBST for a total of 30 min, the immunoblots were visualized by enhanced chemi-luminescence. Immunoblotting results were quantified using ImageJ (NIH).
# Chain of Pin1 (Q13526 whole entry): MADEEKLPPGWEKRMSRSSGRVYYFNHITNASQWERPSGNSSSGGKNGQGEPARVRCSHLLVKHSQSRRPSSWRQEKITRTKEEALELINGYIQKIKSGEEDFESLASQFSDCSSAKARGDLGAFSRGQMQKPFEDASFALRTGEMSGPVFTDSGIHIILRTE
structure (smiles),measurement,setting,value
"CC(C)(C)CN(C(=O)CCl)C1CCS(=O)(=O)C1 (stereo not shown) [Pin1i−2, sulfopin]",CBC BA,"[1]; 20 mg/kg i.p. daily, 3 weeks",0.064%
same,CBC EO,"[1]; 20 mg/kg i.p. daily, 3 weeks",0.204%
same,CBC MO,"[1]; 20 mg/kg i.p. daily, 3 weeks",8.248%
same,CBC WBC,"[1]; 20 mg/kg i.p. daily, 3 weeks",7.508 K/uL
same,Liver Alb,"[1]; 20 mg/kg i.p. daily, 3 weeks",3.375 g/dL
same,CBC RBC,"[1]; 20 mg/kg i.p. daily, 3 weeks",9.424 M/uL
same,CBC NE,"[1]; 20 mg/kg i.p. daily, 3 weeks",6.5%
same,CBC Hb,"[1]; 20 mg/kg i.p. daily, 3 weeks",13.8 g/dL
same,Renal BUN,"[1]; 20 mg/kg i.p. daily, 3 weeks",31 mg/dL
same,Liver ALT,"[1]; 20 mg/kg i.p. daily, 3 weeks",41.5 U/L
same,CBC LY,"[1]; 20 mg/kg i.p. daily, 3 weeks",84.982%
same,CBC PLT,"[1]; 20 mg/kg i.p. daily, 3 weeks",530.4 K/uL
same,Renal Cre,"[1]; 20 mg/kg i.p. daily, 3 weeks",<0.15 mg/dL
same,CBC BA,"[1]; 20 mg/kg i.p. daily, 5 weeks",0.044%
same,CBC EO,"[1]; 20 mg/kg i.p. daily, 5 weeks",0.15%
same,CBC MO,"[1]; 20 mg/kg i.p. daily, 5 weeks",9.16%
same,CBC WBC,"[1]; 20 mg/kg i.p. daily, 5 weeks",7.452 K/uL
same,Liver Alb,"[1]; 20 mg/kg i.p. daily, 5 weeks",2.94 g/dL
same,CBC RBC,"[1]; 20 mg/kg i.p. daily, 5 weeks",9.228 M/uL
same,CBC NE,"[1]; 20 mg/kg i.p. daily, 5 weeks",6.134%
same,CBC Hb,"[1]; 20 mg/kg i.p. daily, 5 weeks",13.38 g/dL
same,Renal BUN,"[1]; 20 mg/kg i.p. daily, 5 weeks",30.4 mg/dL
same,Liver ALT,"[1]; 20 mg/kg i.p. daily, 5 weeks",41.4 U/L
same,CBC LY,"[1]; 20 mg/kg i.p. daily, 5 weeks",84.51%
same,CBC PLT,"[1]; 20 mg/kg i.p. daily, 5 weeks",612.6 K/uL
same,Renal Cre,"[1]; 20 mg/kg i.p. daily, 5 weeks",<0.15 mg/dL
same,CBC BA,"[1]; 40 mg/kg i.p. daily, 3 weeks",0.056%
same,CBC EO,"[1]; 40 mg/kg i.p. daily, 3 weeks",0.156%
same,CBC MO,"[1]; 40 mg/kg i.p. daily, 3 weeks",8.298%
same,CBC WBC,"[1]; 40 mg/kg i.p. daily, 3 weeks",4.76 K/uL
same,Liver Alb,"[1]; 40 mg/kg i.p. daily, 3 weeks",3.6 g/dL
same,CBC RBC,"[1]; 40 mg/kg i.p. daily, 3 weeks",8.698 M/uL
same,CBC NE,"[1]; 40 mg/kg i.p. daily, 3 weeks",6.97%
same,CBC Hb,"[1]; 40 mg/kg i.p. daily, 3 weeks",12.44 g/dL
same,Renal BUN,"[1]; 40 mg/kg i.p. daily, 3 weeks",28.8 mg/dL
same,Liver ALT,"[1]; 40 mg/kg i.p. daily, 3 weeks",41.67 U/L
same,CBC LY,"[1]; 40 mg/kg i.p. daily, 3 weeks",84.522%
same,CBC PLT,"[1]; 40 mg/kg i.p. daily, 3 weeks",449.2 K/uL
same,Renal Cre,"[1]; 40 mg/kg i.p. daily, 3 weeks",<0.15 mg/dL
same,CBC BA,"[1]; 40 mg/kg i.p. daily, 5 weeks",0.092%
same,CBC EO,"[1]; 40 mg/kg i.p. daily, 5 weeks",0.618%
same,CBC MO,"[1]; 40 mg/kg i.p. daily, 5 weeks",9.158%
same,CBC WBC,"[1]; 40 mg/kg i.p. daily, 5 weeks",5.876 K/uL
same,Liver Alb,"[1]; 40 mg/kg i.p. daily, 5 weeks",2.98 g/dL
same,CBC RBC,"[1]; 40 mg/kg i.p. daily, 5 weeks",9.714 M/uL
same,CBC NE,"[1]; 40 mg/kg i.p. daily, 5 weeks",8.926%
same,CBC Hb,"[1]; 40 mg/kg i.p. daily, 5 weeks",13.38 g/dL
same,Renal BUN,"[1]; 40 mg/kg i.p. daily, 5 weeks",26.4 mg/dL
same,Liver ALT,"[1]; 40 mg/kg i.p. daily, 5 weeks",46.2 U/L
same,CBC LY,"[1]; 40 mg/kg i.p. daily, 5 weeks",81.206%
same,CBC PLT,"[1]; 40 mg/kg i.p. daily, 5 weeks",548.8 K/uL
same,Renal Cre,"[1]; 40 mg/kg i.p. daily, 5 weeks",<0.15 mg/dL
same,CBC BA,"[1]; 60 mg/kg i.p. daily, 3 weeks",0.078%
same,CBC EO,"[1]; 60 mg/kg i.p. daily, 3 weeks",0.35%
same,CBC MO,"[1]; 60 mg/kg i.p. daily, 3 weeks",9.418%
same,CBC WBC,"[1]; 60 mg/kg i.p. daily, 3 weeks",6.712 K/uL
same,Liver Alb,"[1]; 60 mg/kg i.p. daily, 3 weeks",3.5 g/dL
same,CBC RBC,"[1]; 60 mg/kg i.p. daily, 3 weeks",9.858 M/uL
same,CBC NE,"[1]; 60 mg/kg i.p. daily, 3 weeks",12.606%
same,CBC Hb,"[1]; 60 mg/kg i.p. daily, 3 weeks",14.76 g/dL
same,Renal BUN,"[1]; 60 mg/kg i.p. daily, 3 weeks",25.4 mg/dL
same,Liver ALT,"[1]; 60 mg/kg i.p. daily, 3 weeks",50.5 U/L
same,CBC LY,"[1]; 60 mg/kg i.p. daily, 3 weeks",77.548%
same,CBC PLT,"[1]; 60 mg/kg i.p. daily, 3 weeks",700.8 K/uL
same,Renal Cre,"[1]; 60 mg/kg i.p. daily, 3 weeks",<0.15 mg/dL
same,CBC BA,"[1]; 60 mg/kg i.p. daily, 5 weeks",0.016%
same,CBC EO,"[1]; 60 mg/kg i.p. daily, 5 weeks",0.304%
same,CBC MO,"[1]; 60 mg/kg i.p. daily, 5 weeks",10.276%
same,CBC WBC,"[1]; 60 mg/kg i.p. daily, 5 weeks",5.664 K/uL
same,Liver Alb,"[1]; 60 mg/kg i.p. daily, 5 weeks",2.72 g/dL
same,CBC RBC,"[1]; 60 mg/kg i.p. daily, 5 weeks",8.958 M/uL
same,CBC NE,"[1]; 60 mg/kg i.p. daily, 5 weeks",7.656%
same,CBC Hb,"[1]; 60 mg/kg i.p. daily, 5 weeks",12.74 g/dL
same,Renal BUN,"[1]; 60 mg/kg i.p. daily, 5 weeks",22.8 mg/dL
same,Liver ALT,"[1]; 60 mg/kg i.p. daily, 5 weeks",49.2 U/L
same,CBC LY,"[1]; 60 mg/kg i.p. daily, 5 weeks",81.742%
same,CBC PLT,"[1]; 60 mg/kg i.p. daily, 5 weeks",618 K/uL
same,Renal Cre,"[1]; 60 mg/kg i.p. daily, 5 weeks",<0.15 mg/dL
same,Pin1 and its substrate oncoproteins (IB),Pin1,ablate Pin1
